In patent US12116358B2, “Substituted indoles and methods of use thereof” (EPIZYME, INC., priority 2018, dated 2024):

Molecular target: T1, SETD2(1434-1711) (Homo sapiens, UniProt Q9BYW2)
T1 construct: SETD2 (1434-1711) Assay; catalogue N/A
T1 sequence (Q9BYW2 1434-1711): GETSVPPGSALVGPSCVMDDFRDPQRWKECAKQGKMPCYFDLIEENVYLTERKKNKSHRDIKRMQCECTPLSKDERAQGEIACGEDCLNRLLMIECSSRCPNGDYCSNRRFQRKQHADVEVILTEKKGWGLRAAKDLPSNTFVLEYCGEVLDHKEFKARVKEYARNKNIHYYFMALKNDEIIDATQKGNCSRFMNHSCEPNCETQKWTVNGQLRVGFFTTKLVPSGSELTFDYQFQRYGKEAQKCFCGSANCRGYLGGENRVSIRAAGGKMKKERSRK
Experiment: SETD2 (1434-1711) assay
Assay type: biochemical
Conditions: read-out: SETD2 (1434-1711)

SMILES	IC50
Cc1ccc(F)c2cc(C(=O)NC3CCCC(N4CCN5C(=O)OCC5C4)C3)[nH]c12 (stereo not drawn) [compound 1111]	20 nM
Cc1cccc2cc(C(=O)Nc3cccc(N4CCC(NCCN)CC4)c3)[nH]c12 [compound 452]	60 nM
CN[C@H]1CCN([C@H]2CCC[C@@H](NC(=O)c3cc4c(F)ccc(C)c4[nH]3)C2)C1 [compound 1087]	10 nM
Cc1ccc(F)c2cc(C(=O)Nc3cccc(N4CCCS4(=O)=O)c3)[nH]c12 [compound 125]	80 nM
Cc1ccc(F)c2cc(C(=O)N[C@@H]3CCC[C@H](N4CCN(C(=O)C5COC5)CC4)C3)[nH]c12 [compound 918]	20 nM
COCC1CN(c2cccc(NC(=O)c3cc4c(F)ccc(C)c4[nH]3)c2)CCO1 (stereo not drawn) [compound 133]	100 nM
Cc1ccc(F)c2cc(C(=O)Nc3cc(F)cc(C4CCN5C(=O)CCC5C4)c3)[nH]c12 (stereo not drawn) [compound 26]	10 nM
Cc1cccc2cc(C(=O)NC3CCOCC3)[nH]c12 [compound 505]	11200 nM
Cc1ccc(F)c2cc(C(=O)Nc3cc(Cl)cc([C@H]4CC[C@@H](N(C)C)CC4)c3)[nH]c12 [compound 106]	3 nM
Cc1cccnc1C(Cc1cnn(CC2CC2)c1)NC(=O)c1cc2cccc(C)c2[nH]1 (stereo not drawn) [compound 175]	70 nM
Cc1ccc(F)c2cc(C(=O)N[C@@H]3CCC[C@H](N4CCn5c(nn(C)c5=O)C4)C3)[nH]c12 [compound 1056]	90 nM
Cc1ccc(F)c2cc(C(=O)Nc3cccc(N4CCOCC4C)c3)[nH]c12 (stereo not drawn) [compound 216]	100 nM
CC(=O)N1CCN(C2CCCC(NC(=O)c3cc4c(F)ccc(C)c4[nH]3)C2)CC1C (stereo not drawn) [compound 967]	20 nM
CC(=O)N1CCN(C2CCCC(NC(=O)c3cc4c(F)ccc(C)c4[nH]3)C2)CC1C(F)(F)F (stereo not drawn) [compound 1018]	30 nM
Cc1ccc(F)c2cc(C(=O)N[C@@H]3CCC[C@H](N4CCC(N(C)C(=O)CN(C)C)C4)C3)[nH]c12 (stereo partly drawn) [compound 908]	4 nM
Cc1ccc(F)c2cc(C(=O)NC3CCCC(N4CCN5C(=O)OCC5C4)C3)[nH]c12 (stereo not drawn) [compound 1135]	20 nM
Cc1ccc(F)c2cc(C(=O)Nc3cccc(C(=O)N(C)C)c3)[nH]c12 [compound 329]	600 nM

SMILES	IC50
CC(=O)N1CCC(c2cccc(NC(=O)c3cc4c(F)ccc(C)c4[nH]3)c2)CC1 [compound 45]	30 nM
COCC(=O)N1CCN(c2cc(F)cc(NC(=O)c3cc4c(F)ccc(C)c4[nH]3)c2)CC1 [compound 12]	10 nM
COCc1nnc(-c2cccc(NC(=O)c3cc4c(F)ccc(C)c4[nH]3)c2)s1 [compound 81]	30 nM
Cc1cccc2cc(C(=O)N[C@H]3C[C@@H](NC(=O)CCN)C3)[nH]c12 [compound 596]	> 50000 nM
Cc1cccnc1C(CN1CCOCC1)NC(=O)c1cc2cccc(C)c2[nH]1 (stereo not drawn) [compound 489]	7900 nM
Cc1ccc(F)c2cc(C(=O)N[C@@H]3CCC[C@H](N4CCn5c(n[nH]c5=O)C4)C3)[nH]c12 [compound 1058]	40 nM
Cc1ccc(F)c2cc(C(=O)Nc3cccc(N4CC[C@@H](N(C)C)[C@@H](C)C4)c3)[nH]c12 [compound 202]	20 nM
Cc1ccc(F)c2cc(C(=O)Nc3cccc(C4CCC(N(C)C)C4)c3)[nH]c12 (stereo not drawn) [compound 282]	40 nM
Cc1ccc(F)c2cc(C(=O)N[C@@H]3CCC[C@H](N4CCCNC(=O)C4)C3)[nH]c12 [compound 823]	400 nM
Cc1cn(Cc2cnc(C(NC(=O)c3cc4c(F)ccc(C)c4[nH]3)C3CC3)c(C)c2)c(C)n1 (stereo not drawn) [compound 317]	100 nM
Cc1ccc(F)c2cc(C(=O)N[C@@H]3CCC[C@@H](N4CCN5C(=O)CCC[C@@H]5C4)C3)[nH]c12 [compound 1079]	300 nM
CCNCC1CN(c2cccc(NC(=O)c3cc4c(F)ccc(C)c4[nH]3)c2)CCO1 (stereo not drawn) [compound 203]	10 nM
Cc1cccc2cc(C(=O)NC(C)c3ccccc3Cl)[nH]c12 (stereo not drawn) [compound 1154]	6000 nM
CNC(=O)CCN1CCCC(NC(=O)c2cc3c(F)ccc(C)c3[nH]2)C1 (stereo not drawn) [compound 386]	> 10000 nM
Cc1cccc2cc(C(=O)Nc3ccc4ncc(CN(C)C)n4c3C)[nH]c12 [compound 495]	1800 nM
Cc1ccc(F)c2cc(C(=O)Nc3cc(F)cc(N4CCN(C5CC5)C(=O)C4)c3)[nH]c12 [compound 10]	10 nM

System: H3K36me3 in A549 cells
Experiment: In-Cell Western (ICW) assay of SETD2 inhibitors (A549 assay)
Assay type: cell-based, human
Conditions: A549 cells; read-out: SETD2 A549
Experimental: In-Cell Western (ICW) Assay of SETD2 Inhibitors (A549 Assay)
Representative Compounds of the Disclosure were tested in the A549 assay according the following protocol.
1. Reagents and Consumables:
Prepare plates with compounds. Seed A549 cells to the plates with compounds, 4,000 cells/well, 50 μl/well. Put the plates at room temperature on a non-vibrating surface for 20 minutes before placing in the incubator. Incubate the plate at 37° C. incubator with CO2 for 3 days. Remove plate from incubator and bring to room temperature. Blot media out of the plate and add 50 μL of ice cold 100% methanol. Incubate 30 minutes at room temperature. Remove methanol by aspiration. Wash 3× with PBST. Add 50 μL of Blocking Buffer+0.1% Tween 20. Incubate 1 hour. Remove Blocking Buffer, wash 3× with PBST. Add 20 μL of H3K36me3 (1:1000 dilution). […] Incubate overnight at 4° C. Wash plate 5× with PBS-T. Add 20 μL of DRAQ5 (1:1000) and IRDye 800CW Goat anti-Rabbit IgG (1:500). Incubate for 1 hour in the dark. Wash plate 5× with PBS-T. Wash plate 3× with water. Dry by blotting on paper towel, then centrifuge plate upside down on a thin layer of paper towels for 1 minute at 1000 rpm to remove excess reagent. Leave plate uncovered for ˜10 minutes out of direct light before reading. Read on Licor instrument.
4. Licor Instrument Settings:
Preset: Plate; Resolution: 84 μm; Quality: low; Focus offset: 4.0; 700 channel intensity: 2; and 800 channel intensity: 3.

SMILES	IC50
Cc1ccc(F)c2cc(C(=O)NC3CCCC(N4CCN5C(=O)OCC5C4)C3)[nH]c12 (stereo not drawn) [compound 1111]	70 nM
Cc1ccc(F)c2cc(C(=O)Nc3cc(F)cc(C4CCN5C(=O)CCC5C4)c3)[nH]c12 (stereo not drawn) [compound 26]	70 nM
Cc1cccc2cc(C(=O)NC3CCOCC3)[nH]c12 [compound 505]	14900 nM
Cc1ccc(F)c2cc(C(=O)Nc3cc(Cl)cc([C@H]4CC[C@@H](N(C)C)CC4)c3)[nH]c12 [compound 106]	200 nM
Cc1ccc(F)c2cc(C(=O)Nc3cccc(N4CCOCC4C)c3)[nH]c12 (stereo not drawn) [compound 216]	500 nM
CC(=O)N1CCN(C2CCCC(NC(=O)c3cc4c(F)ccc(C)c4[nH]3)C2)CC1C (stereo not drawn) [compound 967]	100 nM
CC(=O)N1CCN(C2CCCC(NC(=O)c3cc4c(F)ccc(C)c4[nH]3)C2)CC1C(F)(F)F (stereo not drawn) [compound 1018]	70 nM
Cc1ccc(F)c2cc(C(=O)NC3CCCC(N4CCN5C(=O)OCC5C4)C3)[nH]c12 (stereo not drawn) [compound 1135]	70 nM
COCC(=O)N1CCN(c2cc(F)cc(NC(=O)c3cc4c(F)ccc(C)c4[nH]3)c2)CC1 [compound 12]	50 nM
COCc1nnc(-c2cccc(NC(=O)c3cc4c(F)ccc(C)c4[nH]3)c2)s1 [compound 81]	200 nM
Cc1ccc(F)c2cc(C(=O)Nc3cccc(N4CC[C@@H](N(C)C)[C@@H](C)C4)c3)[nH]c12 [compound 202]	400 nM
Cc1ccc(F)c2cc(C(=O)N[C@@H]3CCC[C@H](N4CCCNC(=O)C4)C3)[nH]c12 [compound 823]	400 nM
CCNCC1CN(c2cccc(NC(=O)c3cc4c(F)ccc(C)c4[nH]3)c2)CCO1 (stereo not drawn) [compound 203]	400 nM
Cc1cccc2cc(C(=O)NC(C)c3ccccc3Cl)[nH]c12 (stereo not drawn) [compound 1154]	> 25000 nM
CNC(=O)CCN1CCCC(NC(=O)c2cc3c(F)ccc(C)c3[nH]2)C1 (stereo not drawn) [compound 386]	> 2000 nM
Cc1cccc2cc(C(=O)Nc3ccc4ncc(CN(C)C)n4c3C)[nH]c12 [compound 495]	13300 nM
Cc1ccc(F)c2cc(C(=O)Nc3cc(F)cc(N4CCN(C5CC5)C(=O)C4)c3)[nH]c12 [compound 10]	40 nM
Cc1cccnc1C(NC(=O)c1cc2nccc(C)c2[nH]1)C1CC1 (stereo not drawn) [compound 599]	> 25000 nM
CC(=O)N1CCC2C1CCN2C1CCCC(NC(=O)c2cc3c(F)ccc(C)c3[nH]2)C1 (stereo not drawn) [compound 1186]	> 2000 nM
CC(=O)N(C)[C@@H]1CCN([C@@H]2CCC[C@@H](NC(=O)c3cc4c(F)ccc(C)c4[nH]3)C2)C1 [compound 849]	> 2000 nM
CC(=O)N1CCC2C1CCN2C1CCCC(NC(=O)c2cc3c(F)ccc(C)c3[nH]2)C1 (stereo not drawn) [compound 1187]	> 2000 nM
Cc1ccc(F)c2cc(C(=O)NC3CCCC(N4CCOCC4)C3)[nH]c12 (stereo not drawn) [compound 381]	> 2000 nM
Cc1ccc(F)c2cc(C(=O)NC3CCCC(N4CCOCC4)C3)[nH]c12 (stereo not drawn) [compound 374]	> 2000 nM
Cc1ccc(F)c2cc(C(=O)Nc3ncc(C4CCN(C)CC4)n3C)[nH]c12 [compound 1159]	> 25000 nM
Cc1ccc(F)c2cc(C(=O)NC3CCCC(N4CCN5C(=O)CCC5C4)C3)[nH]c12 (stereo not drawn) [compound 922]	10 nM
Cc1ccc(F)c2cc(C(=O)NC3CCCC(c4nnc(CN(C)C)o4)C3)[nH]c12 (stereo not drawn) [compound 954]	> 2000 nM
Cc1cccc2cc(C(=O)NCc3ccccc3N3CCCC3)[nH]c12 [compound 528]	24600 nM
Cc1ccc(F)c2cc(C(=O)N[C@@H]3CCC[C@@H](N4CCN5C(=O)CC[C@@H]5C4)C3)[nH]c12 [compound 921]	1000 nM

Same assay, conditions: Homo sapiens, A549, read-out: SETD2 A549

SMILES	IC50
Cc1cccnc1C(NC(=O)c1cc2cccc(C)c2[nH]1)C1CC1 (stereo not drawn) [compound 475]	8900 nM
Cc1cccnc1C(NC(=O)c1cc2cc(F)cc(C)c2[nH]1)C1CC1 (stereo not drawn) [compound 497]	13800 nM
CC(=O)N(C)C1CCN([C@@H]2CCC[C@@H](NC(=O)c3cc4c(F)ccc(C)c4[nH]3)C2)C1 (stereo partly drawn) [compound 385]	> 2000 nM
CC(=O)N(C)[C@H]1CCN([C@H]2CCC[C@@H](NC(=O)c3cc4c(F)ccc(C)c4[nH]3)C2)C1 [compound 841]	100 nM
Cc1cccnc1C(NC(=O)c1cc2c(F)ccc(C)c2[nH]1)C1CC1 (stereo not drawn) [compound 462]	6300 nM

Same assay, conditions: Homo sapiens; A549 cells; read-out: SETD2 A549

SMILES	IC50
Cc1cccc2cc(C(=O)Nc3cccc(N4CCC(NCCN)CC4)c3)[nH]c12 [compound 452]	5700 nM
CN[C@H]1CCN([C@H]2CCC[C@@H](NC(=O)c3cc4c(F)ccc(C)c4[nH]3)C2)C1 [compound 1087]	500 nM
Cc1ccc(F)c2cc(C(=O)Nc3cccc(N4CCCS4(=O)=O)c3)[nH]c12 [compound 125]	300 nM
Cc1ccc(F)c2cc(C(=O)N[C@@H]3CCC[C@H](N4CCN(C(=O)C5COC5)CC4)C3)[nH]c12 [compound 918]	100 nM
COCC1CN(c2cccc(NC(=O)c3cc4c(F)ccc(C)c4[nH]3)c2)CCO1 (stereo not drawn) [compound 133]	300 nM
Cc1cccnc1C(Cc1cnn(CC2CC2)c1)NC(=O)c1cc2cccc(C)c2[nH]1 (stereo not drawn) [compound 175]	300 nM
Cc1ccc(F)c2cc(C(=O)N[C@@H]3CCC[C@H](N4CCn5c(nn(C)c5=O)C4)C3)[nH]c12 [compound 1056]	300 nM
Cc1ccc(F)c2cc(C(=O)N[C@@H]3CCC[C@H](N4CCC(N(C)C(=O)CN(C)C)C4)C3)[nH]c12 (stereo partly drawn) [compound 908]	600 nM
Cc1ccc(F)c2cc(C(=O)Nc3cccc(C(=O)N(C)C)c3)[nH]c12 [compound 329]	1600 nM
CC(=O)N1CCC(c2cccc(NC(=O)c3cc4c(F)ccc(C)c4[nH]3)c2)CC1 [compound 45]	100 nM
Cc1cccc2cc(C(=O)N[C@H]3C[C@@H](NC(=O)CCN)C3)[nH]c12 [compound 596]	> 25000 nM
Cc1cccnc1C(CN1CCOCC1)NC(=O)c1cc2cccc(C)c2[nH]1 (stereo not drawn) [compound 489]	11800 nM
Cc1ccc(F)c2cc(C(=O)N[C@@H]3CCC[C@H](N4CCn5c(n[nH]c5=O)C4)C3)[nH]c12 [compound 1058]	600 nM
Cc1ccc(F)c2cc(C(=O)Nc3cccc(C4CCC(N(C)C)C4)c3)[nH]c12 (stereo not drawn) [compound 282]	1000 nM
Cc1cn(Cc2cnc(C(NC(=O)c3cc4c(F)ccc(C)c4[nH]3)C3CC3)c(C)c2)c(C)n1 (stereo not drawn) [compound 317]	1400 nM
Cc1ccc(F)c2cc(C(=O)N[C@@H]3CCC[C@@H](N4CCN5C(=O)CCC[C@@H]5C4)C3)[nH]c12 [compound 1079]	1300 nM
Cc1nccnc1C(NC(=O)c1cc2cccc(C)c2[nH]1)C1CC1 (stereo not drawn) [compound 518]	18900 nM
CCc1ccc(C)c2[nH]c(C(=O)NC(CCC(=O)N3CCOCC3)c3ncccc3C)cc12 (stereo not drawn) [compound 485]	10800 nM
